Laboratory results taken from patent US12544431B2, “Peptides for the treatment of cancer and/or metastasis” (BCN PEPTIDES, S.A., priority 2019, dated 2026).
“Also recorded” adds a separate entry of the source. Marks after values point to notes of the source that are not given here. Where a SMILES comes first, the peptide text is derived from it. [ ]: non-standard residue; d: D form. Phe(2,4,6-Me3) = Cc1cc(C)c(C[C@H](N)C(=O)O)c(C)c1; pGlu = O=C1CC[C@@H](C(=O)O)N1

How the values were obtained:
[1] = system: CHLA-90 neuroblastoma cells; assay: Transwell invasion assay, CHLA-90 cells; assay type: cell-based
Method: (§1) 10^5 RH30 or RD cells were plated in the upper chamber of a Matrigel-coated transwell (Corning) in 0.1 mL medium without FBS. Cells were previously incubated with different concentrations (0 nM, 100 nM, 200 nM, 500 nM and 1000 nM) of the peptides and peptide dimer for 48 hours, being also present in the medium during the cell invasion assay. In the lower chamber, 0.6 mL of medium with FBS was added. Cells were incubated at 37° ° C. for 24 hours.
(§2) After that, cells were fixed with 4% paraformaldehyde (Sigma) for 10 minutes, followed by washing with PBS. After removal of the Matrigel and remaining cells from the upper face of the membrane with a cotton swab, the cells present on the lower face were stained with a Hoechst dilution (Sigma) and were counted (5 fields for each well) with an inverted fluorescence microscope Nikon with a 10× objective. All experiments were made in triplicate. In Table 6 the % Invasiveness represents the mean percentage of invasive cells with respect to their controls.
(§3) The transwell assay with CHLA-90 and BE(2)-C cell lines was done following the same conditions detailed for determining the % of invasiveness in rhabdomyosarcoma cells.
(§4) The transwell assay with neuroblastoma cell lines (CHLA-90, BE(2)-C and SK—N-BE(2)-C)) and breast cancer cell lines (MDA-MB-231 and MDA-MB-468) was performed at the same conditions detailed for determining the % of invasiveness in rhabdomyosarcoma cells.

[2] = system: RD rhabdomyosarcoma cells; assay: Matrigel-coated transwell invasion assay, RD cells; assay type: cell-based; details: % invasive cells vs non-treated control
Method: as §1, §2

[3] = system: BE(2)-C neuroblastoma cells; assay: Transwell invasion assay, BE(2)-C cells; assay type: cell-based
Method: as §1, §2, §3, §4

[4] = In vitro stability, half-life in human plasma; assay type: in vitro ADME; details: 90% human plasma, 37° C., RP-HPLC; read-out: t½ (hours) in human plasma (converted)
Method: The peptides and peptide dimer synthesized and prepared in accordance with Example 1 were dissolved in water at a concentration of 6 mg/mL and warmed up to 37° C.
Human plasma was obtained as a lyophilized solid (K3 EDTA Plasma, BBI Solutions, code S112-1), reconstituted with sterile 0.9% sodium chloride solution and stored at −20° C. Human plasma was thawed and incubated at 37° C. before use.
The peptides and peptide dimer were incubated in 90% human plasma at 37° C. for different times and then precipitated with two volume equivalents of methanol. The samples were cooled in an acetone-carbon dioxide bath for a few seconds and centrifuged for 12 minutes at 4° C. at approximately 10,000 rpm. The supernatant was filtered with a 0.45 μm PVDF filter and analyzed in triplicate by RP-HPLC using an isocratic method (Eluent A=0.1% TFA in water; Eluent B=0.07% TFA in ACN, Column=Kromasil C8, 100 Å, 5 μm, 250×4.6 mm, Flow=1 mL/min, Wavelength: 220 nm, Injection volume=20 μL, Temperature=60° C.). The disappearance of the compound was determined in relation to the area of the initial time to calculate its half-life.

[5] = system: RH30 rhabdomyosarcoma cells; assay: Matrigel-coated transwell invasion assay, RH30 cells; assay type: cell-based; details: % invasive cells vs non-treated control
Method: as §1, §2

[6] = system: RD rhabdomyosarcoma cells; assay: Rhabdomyosarcoma metastatic mice model (RD cells i.v. in tail vein); assay type: in vivo, SCID/Beige mice; details: for event-free survival vs vehicle group (in words): 27-week study; for Absence of metastases, number of mice / Absence of metastases, percentage of mice / Presence of metastases (%), percentage of mice / Presence of metastases, number of mice: 27 weeks; for body weight, treated vs vehicle-treated mice (in words): along the 27-week study; for reduction in metastases formation: vs PBS-treated mice
Method: SCID/Beige female mice aged of 5 weeks were administered subcutaneously (s.c.) at day −1 with the first dose of treatment i.e. the vehicle (PBS, Phosphate buffered saline) or the peptides. On day 0, mice were injected intravenously (i.v.) in the tail vein with 2×10^6 RD rhabdomyosarcoma cells.
Body weight was evaluated twice per week for 27 weeks. Overall survival and event-free survival were determined. At necropsy, the total number of metastases were quantified and the number of metastases per mice and their localization were also reported.

[7] = 500 nM peptide, listed as SEQ ID NO: 6—NH2
[8] = 0.5 mg/kg s.c. three times per week
[9] = 2 mg/kg s.c. three times per week

For `Cc1cc(C)c(C[C@H](NC(=O)[C@H](CCC(=O)O)NC(=O)[C@@H]2CCCN2C(=O)[C@H](CC(C)C)NC(=O)[C@H](CC(=O)O)NC(=O)[C@H](CS)NC(=O)[C@H](CO)NC(=O)[C@H](CC(N)=O)NC(=O)[C@H](CO)NC(=O)[C@H](CO)NC(=O)[C@H](CC(=O)O)NC(=O)[C@H](CCCNC(=N)N)NC(=O)[C@H](CCCCN)NC(=O)[C@@H]2CCC(=O)N2)C(=O)N[C@@H](CCCCN)C(N)=O)c(C)c1` [SEQ ID NO: 6-NH2, Pyr-Lys-Arg-Asp-Ser-Ser-Asn-Ser-Cys-Asp-Leu-Pro-Glu-Msa-Lys-NH2] ([pGlu]KRDSSNSCDLPE[Phe(2,4,6-Me3)]K-NH2), the “% Invasiveness CHLA-90” value ([1]; 100 nM peptide) was 75.90%, the “% Invasiveness CHLA-90” value ([1]; 200 nM peptide) was 55.22* % and the “% Invasiveness CHLA-90” value ([1]; 200 nM peptide, listed as SEQ ID NO: 6—NH2) was “significant reductions”. For the same compound, the “% Invasiveness CHLA-90” value ([1]; 500 nM peptide) was 44.58* %, the “% Invasiveness CHLA-90” value ([1]; 1000 nM peptide) was 49.00* % and the “% Invasiveness RD” value ([2]; 100 nM peptide) was 39.45%. For the same compound, the “% Invasiveness RD” value ([2]; 500 nM peptide) was 39.98%, the “% Invasiveness BE(2)-C” value ([3]; 100 nM peptide) was 60.08% and the “% Invasiveness BE(2)-C” value ([3]; 200 nM peptide) was 59.04%. For the same compound, the “% Invasiveness BE(2)-C” value ([3]; 500 nM peptide) was 31.17* %, the “% Invasiveness BE(2)-C” value [3, 7] was “significant reductions” and the “% Invasiveness BE(2)-C” value ([3]; 1000 nM peptide) was 23.54* %. The half-life at 0.6 mg/mL [4] was 0.17 h, the “% Invasiveness RH30” value ([5]; 100 nM peptide) was 54.67% and the “% Invasiveness RH30” value ([5]; 500 nM peptide) was 22.77* %. The “% Invasiveness RH30” value [5, 7] was “significant reduction”, the “event-free survival vs vehicle group (in words)” value ([6]; 0.5 mg/kg (lower dose), listed as SEQ ID NO: 6—NH2) was “did not show a significant effect” and the “event-free survival vs vehicle group (in words)” value ([6]; 0.5 mg/kg (lower dose), listed as SEQ ID NO:6—NH2) was “did not show statistically significant difference”. For the same compound, the “Absence of metastases, number of mice” value [6, 8] was 1, the “Absence of metastases, percentage of mice” value [6, 8] was 17% and the “Presence of metastases (%), percentage of mice” value [6, 8] was 83%. For the same compound, the “Presence of metastases, number of mice” value [6, 8] was 5, the “body weight, treated vs vehicle-treated mice (in words)” value ([6]; 0.5 mg/kg) was “vehicle-treated mice showed a statistically significant lower body weight” and the “reduction in metastases formation” value ([6]; 0.5 mg/kg) was ~15%. The “number of metastases per mouse vs vehicle (in words)” value ([6]; 2 mg/kg (higher dose), at necropsy) was “statistically reduced the formation of metastases per mouse; also recorded: efficacious in the reduction of the number of metastases”, the “Absence of metastases, number of mice” value [6, 9] was 1 and the “Absence of metastases, percentage of mice” value [6, 9] was 14%. The “Presence of metastases (%), percentage of mice” value [6, 9] was 86%, the “Presence of metastases, number of mice” value [6, 9] was 6 and the “event-free survival vs vehicle group (in words)” value ([6]; 2 mg/kg, Log-rank) was “did not show statistically significant difference”. For the same compound, the “body weight, treated vs vehicle-treated mice (in words)” value ([6]; 2 mg/kg) was “vehicle-treated mice showed a statistically significant lower body weight” and the “reduction in metastases formation” value ([6]; 2 mg/kg) was ~15%.
